These substances were tested on NanoLuc (assay: NanoLuc luciferase reporter expression from constitutive promoters and RBSs integrated with pNBU2). Conditions: RBS combined with promoter PBT1311, NanoLuc reporter, three biological replicates.
Type: cell-based, B. thetaiotaomicron
From the text: FIGS. 1A-1G. Genetic parts to control expression in B. thetaiotaomicron. (FIG. 1A) The ranges of gene expression are shown for the different gene regulation systems provided herein. (FIG. 1B) IntN2 catalyzes stable integration of pNBU2-based expression constructs into one of two attBT2 sites in the B. thetaiotaomicron genome. The two attBT2 sites (attBT2-1 at nucleotide (nt) 6,217,227 and attBT2-2 at nt 6,138,320) are in the 3′ ends of tRNA^Ser genes (BT_t71 and BT_t70, respectively). (FIG. 1C) Constitutive promoters and ribosome binding sites for the construction of gene expression libraries. The putative −33 and −7 regions of the PBT1311 promoter, the Shine-Delgarno sequence, and the start codon are indicated by black boxes. Numbers below the black boxes represent nucleotide locations relative the PBT1311 transcription start site. The 26 nt sequences introduced in the PAM promoters are shown (see also FIGS. 6A-6B). Numbers at the edges of the boxes indicate the PBT1311 nucleotides replaced or the insertion site within the promoter. The location of residues randomized in the rpiL* RBS library are indicated with gray arrows (for library A: nt −14, −13, −12; for library B: nt −21, −18, −15; and for library C: nt −17, −16, −11; nt numbering is relative to the translation start site). (FIG. 1D) Activity was measured for a set of constitutive promoters and their cognate RBSs. Furthermore, a set of constitutive promoters (PBT1311, PAM1, PAM2, PAM3, PAM4) was combined with RBSs of varying strengths. Gene expression was measured using a luciferase reporter (NanoLuc). (FIG. 1E) Three large RBS libraries were constructed and combined with promoter PBT1311 to span 10^3-fold in gene expression. For reference, the parent rpiL* RBS is indicated with a black arrow. For D and E, error bars represent the standard deviation of three independent biological replicates made on separate days. (FIG. 1F) The strength of each RBS was compared to the predicted free energy of folding for the mRNA (ΔGfold,). (FIG. 1G) Strong (SEQ ID NO: 210) and weak (SEQ ID NO: 211) consensus sequences for the rpiL* −21 to −11 RBS region targeted by mutagenesis (residue locations are stated relative to the translation start site) are provided. Frequency logos were generated for the 11 strongest and 11 weakest RBSs by comparing the frequency of each nucleotide at each position in that group with the frequency of that nucleotide in that position in the full library. Position −20 and −19 were not randomized and are thus are not shown in the frequency logos.
All genetic parts in this study were characterized using the integration vector pNBU2 to ensure genetic stability of the constructs (FIG. 1B). The pNBU2 plasmid encodes the intN2 tyrosine integrase, which mediates sequence-specific recombination between the attN site of pNBU2 and one of two attBT sites located in the 3′ ends of the two tRNA^Ser genes, BT_t70 and BT_t71, on the B. thetaiotaomicron chromosome (FIG. 1B). Insertion of the pNBU2 plasmid inactivates the tRNA^Ser gene, and simultaneous insertion into both BT_t70 and BT_t71 is unlikely due to the essentiality of tRNA^Ser. pNBU2-based vectors have been used for single-copy complementation in B. thetaiotaomicron in in vitro studies (Koropatkin N M et al. Nat. Rev. Microbiol. 10:323-35, 2012) and in vivo mouse models (Martens E C et al. Cell Host Microbe 4:447-57, 2008).
B. thetaiotaomicron genetic parts were characterized with NanoLuc luciferase (Hall M P et al. ACS Chem. Biol. 7:1848-1857, 2012), which is a small (19 kDa) modified shrimp luciferase. Efforts to use members of the green fluorescent protein family and a FMN-based fluorescent reporter were not successful. NanoLuc oxidizes the exogenously-added substrate furimazine to produce glow-type bioluminescence (Emax=460 nm) with a signal half-life of 2 hr. […]
For “B13: RBS, SEQ ID NO: 25 (DNA TCCCGCATTTTAAAATAAAATAAATGATTTAATTAATTAAACGAAT; chemistry not fully specified)”, the “Average Luminescence (RLU/CFU)” value was 0.02746 RLU/CFU. For “B14: RBS, SEQ ID NO: 26 (DNA TCCCGCATTTTAAAATAAAATAAATTATCTATTTAATTAAACGAAT; chemistry not fully specified)”, the “Average Luminescence (RLU/CFU)” value was 0.02715 RLU/CFU. With “B15: RBS, SEQ ID NO: 27 (DNA TCCCGCATTTTAAAATAAAATAAATGATTTACTTAATTAAACGAAT; chemistry not fully specified)” the “Average Luminescence (RLU/CFU)” value was 0.02695 RLU/CFU. With “B16: RBS, SEQ ID NO: 28 (DNA TCCCGCATTTTAAAATAAAATAAATTATATACTTAATTAAACGAAT; chemistry not fully specified)” the “Average Luminescence (RLU/CFU)” value was 0.02683 RLU/CFU. For “B17: RBS, SEQ ID NO: 30 (DNA TCCCGCATTTTAAAATAAAATAAATAATTTAGTTAATTAAACGAAT; chemistry not fully specified)”, the “Average Luminescence (RLU/CFU)” value was 0.0259 RLU/CFU. With “B18: RBS, SEQ ID NO: 35 (DNA TCCCGCATTTTAAAATAAAATAAATAATGTAGTTAATTAAACGAAT; chemistry not fully specified)” the “Average Luminescence (RLU/CFU)” value was 0.02291 RLU/CFU. With “B19: RBS, SEQ ID NO: 42 (DNA TCCCGCATTTTAAAATAAAATAAATTATGTATTTAATTAAACGAAT; chemistry not fully specified)” the “Average Luminescence (RLU/CFU)” value was 0.02048 RLU/CFU. For “B20: RBS, SEQ ID NO: 52 (DNA TCCCGCATTTTAAAATAAAATAAATGATCTAATTAATTAAACGAAT; chemistry not fully specified)”, the “Average Luminescence (RLU/CFU)” value was 0.01676 RLU/CFU. With “B21: RBS, SEQ ID NO: 53 (DNA TCCCGCATTTTAAAATAAAATAAATGATATATTTAATTAAACGAAT; chemistry not fully specified)” the “Average Luminescence (RLU/CFU)” value was 0.01613 RLU/CFU. “B22: RBS, SEQ ID NO: 55 (DNA TCCCGCATTTTAAAATAAAATAAATCATGTAATTAATTAAACGAAT; chemistry not fully specified)” was tested, and the “Average Luminescence (RLU/CFU)” value was 0.01599 RLU/CFU. With “B23: RBS, SEQ ID NO: 61 (DNA TCCCGCATTTTAAAATAAAATAAATAATCTATTTAATTAAACGAAT; chemistry not fully specified)” the “Average Luminescence (RLU/CFU)” value was 0.01464 RLU/CFU. For “B24: RBS, SEQ ID NO: 62 (DNA TCCCGCATTTTAAAATAAAATAAATCATTTATTTAATTAAACGAAT; chemistry not fully specified)”, the “Average Luminescence (RLU/CFU)” value was 0.01427 RLU/CFU. “B25: RBS, SEQ ID NO: 63 (DNA TCCCGCATTTTAAAATAAAATAAATGATTTAGTTAATTAAACGAAT; chemistry not fully specified)” was tested, and the “Average Luminescence (RLU/CFU)” value was 0.01415 RLU/CFU. For “B26: RBS, SEQ ID NO: 68 (DNA TCCCGCATTTTAAAATAAAATAAATTATTTAGTTAATTAAACGAAT; chemistry not fully specified)”, the “Average Luminescence (RLU/CFU)” value was 0.01271 RLU/CFU. For “B27: RBS, SEQ ID NO: 74 (DNA TCCCGCATTTTAAAATAAAATAAATGATATAGTTAATTAAACGAAT; chemistry not fully specified)”, the “Average Luminescence (RLU/CFU)” value was 0.009815 RLU/CFU. In the case of “B28: RBS, SEQ ID NO: 77 (DNA TCCCGCATTTTAAAATAAAATAAATTATGTAGTTAATTAAACGAAT; chemistry not fully specified)”, the “Average Luminescence (RLU/CFU)” value is reported as 0.009593 RLU/CFU. In the case of “B29: RBS, SEQ ID NO: 80 (DNA TCCCGCATTTTAAAATAAAATAAATTATATAGTTAATTAAACGAAT; chemistry not fully specified)”, the “Average Luminescence (RLU/CFU)” value is reported as 0.009478 RLU/CFU. With “B30: RBS, SEQ ID NO: 82 (DNA TCCCGCATTTTAAAATAAAATAAATGATGTATTTAATTAAACGAAT; chemistry not fully specified)” the “Average Luminescence (RLU/CFU)” value was 0.009276 RLU/CFU. “B31: RBS, SEQ ID NO: 85 (DNA TCCCGCATTTTAAAATAAAATAAATGATCTAGTTAATTAAACGAAT; chemistry not fully specified)” was tested, and the “Average Luminescence (RLU/CFU)” value was 0.008534 RLU/CFU.
